The results in this text go back to patent US8791132B2, “Compounds and methods for treatment of hypertension” (Medivation Technologies, Inc., priority 2011, dated 2014).

In assay [1] the target is T1, human recombinant adrenergic α2B receptor (Homo sapiens, UniProt P18089).
T1 construct: expressed in transfected cells; host or cells: CHO-K1
T1 sequence (P18089 1-450): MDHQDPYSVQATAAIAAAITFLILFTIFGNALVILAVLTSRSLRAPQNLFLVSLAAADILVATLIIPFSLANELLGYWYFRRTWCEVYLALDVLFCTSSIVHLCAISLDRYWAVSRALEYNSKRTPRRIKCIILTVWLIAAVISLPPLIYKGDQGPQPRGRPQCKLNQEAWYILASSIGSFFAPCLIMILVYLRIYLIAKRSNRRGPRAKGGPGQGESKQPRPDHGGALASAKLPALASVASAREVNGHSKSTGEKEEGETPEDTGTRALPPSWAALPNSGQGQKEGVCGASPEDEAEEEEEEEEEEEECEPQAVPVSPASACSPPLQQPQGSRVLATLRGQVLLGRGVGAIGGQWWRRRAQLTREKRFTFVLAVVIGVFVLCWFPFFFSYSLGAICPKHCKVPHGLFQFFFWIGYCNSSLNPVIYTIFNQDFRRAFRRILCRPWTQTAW
As to the kind of experiment: Radioligand binding, adrenergic α2B ([3H]Rauwolscine). The conditions noted are these: [3H]Rauwolscine, repeat datapoints each shown; for inhibition at 0.1 µM: read-out: Percentage inhibition of ligand binding, Adrenergic α2B (0.1 μM), compound at 0.1 μM. The method in brief: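 Membranes from CHO-K1 cells expressing human recombinant α2B, in 50 mM Tris-HCl pH 7.4, 12.5 mM MgCl2, 1 mM EDTA, 0.2% BSA, incubated with compound and 2.5 nM [3H]Rauwolscine, 60 min, 25 °C.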

Assay [2] deals with T2, human recombinant adrenergic α2A receptor (Homo sapiens, UniProt P08913).
T2 construct: expressed in transfected cells; host or cells: insect Sf9 cells
T2 sequence (P08913 1-465): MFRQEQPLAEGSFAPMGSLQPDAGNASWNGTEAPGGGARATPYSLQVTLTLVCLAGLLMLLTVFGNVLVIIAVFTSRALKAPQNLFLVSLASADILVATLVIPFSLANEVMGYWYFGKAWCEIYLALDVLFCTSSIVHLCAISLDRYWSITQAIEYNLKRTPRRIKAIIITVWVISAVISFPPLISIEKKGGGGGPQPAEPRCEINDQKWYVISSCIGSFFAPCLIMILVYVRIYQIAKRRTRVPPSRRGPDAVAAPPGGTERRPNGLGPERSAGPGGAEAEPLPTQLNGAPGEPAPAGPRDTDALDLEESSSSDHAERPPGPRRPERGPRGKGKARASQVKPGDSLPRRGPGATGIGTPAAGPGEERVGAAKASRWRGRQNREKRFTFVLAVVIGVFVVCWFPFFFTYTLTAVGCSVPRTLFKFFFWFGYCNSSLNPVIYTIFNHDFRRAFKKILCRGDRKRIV
Description: Radioligand binding, adrenergic α2A ([3H]MK-912). The conditions noted are these: for inhibition at 0.1 µM: read-out: Percentage inhibition of ligand binding, Adrenergic α2A (0.1 μM), compound at 0.1 μM, [3H]MK-912, repeat datapoints each shown. The essentials:
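Receptor expressed in Sf9 cells, in 50 mM Tris-HCl pH 7.4, 12.5 mM MgCl2, 2 mM EDTA; compounds incubated with 1 nM [3H]MK-912 for 60 min at 25 °C.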

Assay [3] has as its target T3, human recombinant adrenergic α1D receptor (Homo sapiens, UniProt P25100).
T3 construct: expressed in transfected cells; host or cells: HEK-293
T3 sequence (P25100 1-572): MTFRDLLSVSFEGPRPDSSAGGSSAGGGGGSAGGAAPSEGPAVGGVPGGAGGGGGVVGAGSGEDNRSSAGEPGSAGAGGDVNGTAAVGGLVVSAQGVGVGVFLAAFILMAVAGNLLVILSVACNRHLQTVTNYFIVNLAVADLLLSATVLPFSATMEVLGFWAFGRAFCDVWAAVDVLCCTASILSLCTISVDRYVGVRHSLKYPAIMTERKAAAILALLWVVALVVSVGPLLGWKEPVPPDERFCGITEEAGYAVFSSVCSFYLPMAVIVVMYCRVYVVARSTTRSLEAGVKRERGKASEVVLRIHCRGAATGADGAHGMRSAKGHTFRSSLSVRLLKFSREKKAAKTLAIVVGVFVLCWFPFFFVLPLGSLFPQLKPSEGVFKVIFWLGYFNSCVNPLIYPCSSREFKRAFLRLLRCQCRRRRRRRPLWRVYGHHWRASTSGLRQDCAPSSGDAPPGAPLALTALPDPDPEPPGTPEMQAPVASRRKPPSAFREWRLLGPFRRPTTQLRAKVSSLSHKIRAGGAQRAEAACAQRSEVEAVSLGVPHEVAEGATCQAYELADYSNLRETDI
Description: Radioligand binding, adrenergic α1D ([3H]Prazosin). The note with it: [3H]Prazosin, repeat datapoints each shown; for inhibition at 0.1 µM: read-out: Percentage inhibition of ligand binding, Adrenergic α1D (0.1 μM), compound at 0.1 μM. As to the method:
Compounds were incubated with 0.6 nM [3H]Prazosin for 60 min at 25° C. Non-specific binding was estimated in the presence of 10 μM phentolamine. Receptor proteins were filtered and washed, the filters were then counted to determine [3H]Prazosin specifically bound. […] Biochemical assay results are presented as the percent inhibition of specific binding in Table B1.

The target of assay [4] is T4, rat adrenergic α1B receptor (Rattus norvegicus, UniProt P15823).
T4 construct: rat adrenergic α1B receptor obtained from Wistar Rat liver; from tissue; host or cells: Wistar rat liver
T4 sequence (P15823 1-515): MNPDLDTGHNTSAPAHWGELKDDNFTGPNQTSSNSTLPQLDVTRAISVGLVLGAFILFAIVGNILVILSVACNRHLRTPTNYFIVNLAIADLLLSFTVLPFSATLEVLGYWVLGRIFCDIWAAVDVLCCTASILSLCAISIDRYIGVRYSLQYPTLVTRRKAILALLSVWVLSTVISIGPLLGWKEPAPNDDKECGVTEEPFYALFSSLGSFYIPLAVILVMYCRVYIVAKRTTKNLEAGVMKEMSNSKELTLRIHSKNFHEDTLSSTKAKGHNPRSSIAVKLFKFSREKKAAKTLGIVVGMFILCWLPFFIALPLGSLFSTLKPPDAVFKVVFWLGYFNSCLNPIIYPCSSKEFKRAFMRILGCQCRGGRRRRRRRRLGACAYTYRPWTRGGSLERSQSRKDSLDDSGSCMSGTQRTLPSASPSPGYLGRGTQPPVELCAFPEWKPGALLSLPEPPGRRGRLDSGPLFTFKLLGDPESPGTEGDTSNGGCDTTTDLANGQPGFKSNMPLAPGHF
Description: Radioligand binding, adrenergic α1B ([3H]Prazosin). The note with it: [3H]Prazosin, repeat datapoints each shown; for inhibition at 0.1 µM: read-out: Percentage inhibition of ligand binding, Adrenergic α1B (0.1 μM), compound at 0.1 μM. The essentials: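 Rat α1B receptor from Wistar rat liver was incubated with 0.25 nM [3H]prazosin for 60 min at 25 °C in 50 mM Tris-HCl, pH 7.4, 0.5 mM EDTA. Non-specific binding was defined with 10 μM phentolamine. Bound radioligand was measured by filtration and counting, reported as percent inhibition of specific binding.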

pKi: −log10 of the molar value.

With `C/C(=C\n1c2c(c3cc(C)ccc31)CCN(C)CC2)c1ccncn1` [compound 106], the inhibition (as a rule, the relative decrease from the control value, in per cent) at 0.1 µM in assay [1] came out at 79%; in assay [2], 6%; in assay [3], 45%; in assay [4] it was 65%.

For `CNC(=O)c1cccc(/C(C)=C/n2c3c(c4cc(C)ccc42)CN(C)CC3)c1` [compound 107], the inhibition at 0.1 µM came to 85% in assay [1], 10% in assay [2], 63% in assay [3] and 56% in assay [4].

In the case of `C/C(=C\n1c2c(c3cc(C)ccc31)CN(C)CC2)c1ccnn1C` [compound 108], the inhibition at 0.1 µM was 88% in assay [1], 20% in assay [2], 21% in assay [3] and 42% in assay [4].

With `C/C(=C\n1c2c(c3cc(C)ccc31)CN(C)CC2)c1cnn(C)c1` [compound 109], the inhibition at 0.1 µM in assay [1] came out at 69%; in assay [2], 25%; in assay [3], 21%; in assay [4], 13%.

As for `C/C(=C\n1c2c(c3cc(C)ccc31)CN(C)CC2)c1c(C)noc1C` [compound 110], the inhibition at 0.1 µM is 62% in assay [1], 27% in assay [2], 35% in assay [3] and 5% in assay [4].

`CC(=O)Nc1ccc(/C(C)=C\n2c3c(c4cc(C)ccc42)CN(C)CC3)cn1` [compound 111]: the inhibition at 0.1 µM came to 65% in assay [1], 0% in assay [2], 77% in assay [3] and 56% in assay [4].

For the molecule `CC(=O)Nc1ccc(/C(C)=C/n2c3c(c4cc(C)ccc42)CN(C)CC3)cn1` [compound 112], the inhibition at 0.1 µM in assay [1] is 79%; in assay [2] it was 26%; in assay [3], 40%; in assay [4], 44%.

With `C/C(=C\n1c2c(c3cc(C)ccc31)CN(C)CC2)c1cccc2ccccc12` [compound 113], the inhibition at 0.1 µM came out at 87% in assay [1], 29% in assay [2], 3% in assay [3] and 12% in assay [4].

Regarding `C/C(=C\n1c2c(c3cc(C)ccc31)CN(C)CC2)c1cn[nH]c1` [compound 115], the inhibition at 0.1 µM worked out at 94% in assay [1], 21% in assay [2], 24% in assay [3] and 19% in assay [4].

Regarding `C=C(Cn1c2c(c3cc(Cl)ccc31)CN(C)CC2)c1ccncc1` [compound 116], the inhibition at 0.1 µM in assay [1] stood at 75%; in assay [2], 22%; in assay [3] it was 26%; in assay [4] it was 23%.

Take `C=C(n1ccnc1)n1c2c(c3cc(C)ccc31)CN(C)CC2` [compound 118, 5-(1-imidazol-1-yl-vinyl)-2,8-dimethyl-2,3,4,5-tetrahydro-1H-pyrido[4,3-b]indole]: the inhibition at 0.1 µM turned out to be 60% in assay [1], 19% in assay [2], 7% in assay [3] and 35% in assay [4].

With `Cc1ccc(CCn2c3c(c4ccc(C(F)(F)F)cc42)CN(C)CC3)cn1` [compound 119], the inhibition at 0.1 µM was 60% in assay [1], 14% in assay [2], -6% in assay [3] and 14% in assay [4].

In the case of `C=C(Cn1c2c(c3cc(C)ccc31)CN(C)CC2)c1ccncc1` [compound 121], the inhibition at 0.1 µM in assay [1] is 88%; in assay [2], 16%; in assay [3] it was 44%; in assay [4] it was 6%.

In the case of `CNC(=O)c1ccc(/C(C)=C/n2c3c(c4cc(C)ccc42)CN(C)CC3)cn1` [compound 122], the inhibition at 0.1 µM worked out at 96% in assay [1], 13% in assay [2], 84% in assay [3] and 51% in assay [4].

On to `C/C(=C\n1c2c(c3cc(C)cnc31)CN(C)CC2)c1ccncc1` [compound 124], for which the inhibition at 0.1 µM in assay [1] is 63%; in assay [2], -2%; in assay [3], 12%; in assay [4], 19%.

Regarding `C/C(=C\n1c2c(c3cc(C)ccc31)CN(C)CC2)c1ccc(CO)nc1` [compound 125, (E)-(5-(1-(2,8-dimethyl-3,4-dihydro-1H-pyrido[4,3-b]indol-5(2H)-yl)prop-1-en-2-yl)pyridin-2-yl)methanol], the inhibition at 0.1 µM in assay [1] is 68%; in assay [2], -4%; in assay [3] it was 1%; in assay [4], -3%.

On to `COCc1ccc(/C(C)=C/n2c3c(c4cc(C)ccc42)CN(C)CC3)cn1` [compound 126], for which the inhibition at 0.1 µM was found to be 82% in assay [1], 12% in assay [2], 46% in assay [3] and 30% in assay [4].

On to `Cc1ccc2c(c1)c1c(n2CCc2ccc(Cl)cc2)CCN(C)C1` [compound 184, 5-(4-Chlorophenethyl)-2,3,4,5-tetrahydro-2,8-dimethyl-1H-pyrido[4,3-b]indole], for which the inhibition at 0.03 µM in assay [1] (read-out: Percentage inhibition of ligand binding, Adrenergic α2B (0.03 μM), compound at 0.03 μM) was determined as 95%; in assay [3] (read-out: Percentage inhibition of ligand binding, Adrenergic α1D (0.03 μM), compound at 0.03 μM) it was 24%; in assay [4] (read-out: Percentage inhibition of ligand binding, Adrenergic α1B (0.03 μM), compound at 0.03 μM) it was 60%. Also, in assay [2], the pKi (in general, −log10 of the Ki, conventionally taken in molar units) was 6.74. Further, the inhibition at 0.1 µM in assay [2] amounted to 93%.
